Experimental data from patent publication US12121746B2, “Energy augmentation structures, energy emitters or energy collectors containing the same, and their use in methods and systems for treating cell proliferation disorders” (priority 2019, dated 2024).
Like-named read-outs stand apart in the source and are kept apart here.

Columns and labels:
[1] = cited from earlier work
[2] = test system: syngeneic 4T1-HER2 tumors; experiment: In-vivo X-PACT trial on syngeneic tumors; design: species or system BALB/c mice; conditions: treatment arms with x-ray; 5 μM psoralen (AMT), 100 μg of phosphor; FIG. 54
Method: There were 4 arms of the trial: […] […] There were 6-8 mice per arm, and the study was repeated a second time, yielding effective sample sizes of 12-16. […] A consistent x-ray irradiation technique was used for all arms (except saline control) which was 2 Gy delivered at 75 kVp by 30 mA in 3 minutes.

KP158B (sarcoma) = experiment: UV light activated psoralen, Cell-Titer-Glo Luminescence Cell Viability Assay; format: cell-based, murine; conditions: psoralen 40 ρM; UV light 0, 0.25, 0.5, 1.0 J/cm^2; N=4; FIG. 51A
Method: (§1) Metabolic cell viability was also assessed visually using Methylene blue staining and ATP-induced Luminescence imaging (Cell-Titer-Glo® Luminescence Cell Viability Assay). The luminescence imaging permitted investigation of the cytotoxicity of psoralen activated directly with a UV lamp, and in the absence of phosphors and x-ray radiation. […] The psoralen concentration was 40 ρM.

4T1 = experiment: as above; format: cell-based, murine; conditions: psoralen 40 ρM; UV light 0, 0.25, 0.5, 1.0 J/cm^2; N=4; FIG. 51A
Method: as §1

[3] = test system: CT2A (murine malignant glioma); experiment: as above; format: cell-based; conditions: psoralen 40 ρM; UV light 0, 0.25, 0.5, 1.0 J/cm^2; N=4; FIG. 51A
Method: as §1

4T1-HER2 cells = conditions: multi-variable regression on 36 independent irradiation experiments; irradiated
Method: In-vitro X-PACT studies were conducted on cells prepared in the following manner. Cells were incubated in appropriate growing media and buffers before being trypsinized and plated evenly onto twelve (12) well plates for 24 hours. […] The plates were then irradiated with x-rays by placing the plate at a known distance from the x-ray source (e.g., 50 cm). After irradiation the cells were incubated on the plate for 48 hours prior to performing flow cytometry. For compatibility with 96-well Guava Nexin® assay, the remaining cells were again trypsinized (after the 48 hour incubation) and plated onto a 96-well plate. The phosphors used in this evaluation were designated as NP 200 and GTP 4300. […]
Cells plated in 12-well plates, where individual wells in each plate may receive different experimental conditions (e.g. psoralen concentration), but the same x-ray dose (i.e. all wells in a given plate receive the same x-ray dose). The first metric is metabolically viable cell count (or cell viability) determined from the number of whole cells per well as determined using forward scattering (FSC). […] (All wells on a given plate receive the same dose.) The second metric is Annexin V (+) signal, which is the fraction of the metabolically viable cells which expressed a positive Annexin V signal as determined by flow cell cytometry, and include any cells advancing toward early or late apoptotic cell death. […]

[4] = in vivo; cited from earlier work

Molecule: Oc1cccc(-c2c3nc(c(-c4cccc(O)c4)c4ccc([nH]4)c(-c4cccc(O)c4)c4nc(c(-c5cccc(O)c5)c5ccc2[nH]5)CC4)C=C3)c1 [Foscan, Tetra (m-hydroxyphenyl) chlorin]
- Length of photosensitization ([1]; Table 3): 2 weeks
- duration of skin photosensitivity [1]: approximately 2 weeks

Molecule: CC(=O)[O-].CC(=O)[O-].CCc1c(CC)c2cc3nc(cnc4cc(OCCOCCOCCOC)c(OCCOCCOCCOC)cc4ncc4nc(cc1[n-]2)C(CCCO)=C4C)C(C)=C3CCCO.O.[Lu+3] [Lutetium texahyrin, Motexafin lutetium]
- Length of photosensitization ([1]; in vivo): 24 to 48 h
- duration of skin photosensitivity ([1]; in vivo): 24 to 48 h

Molecule: O=c1ccc2cc3ccoc3cc2o1 [psoralen]
- tumor growth effect [2]: slightly higher component effect
- viable cells (KP158B (sarcoma)): reduce viable cells
- viable cells (4T1): reduce viable cells
- viable cells [3]: reduce viable cells
- cytotoxicity (Annexin V signal) (4T1-HER2 cells): neither psoralen nor phosphor alone had a strong effect

Molecule: Vitamin B12
- route of excretion [4]: excreted by glomerular filtration
